Measured values reported in US20210379066A1, “COMBINATIONS OF POSITIVE ALLOSTERIC MODULATORS AND NICOTINIC ACETYLCHOLINE RECEPTOR AGONISTS FOR TREATING OCULAR CONDITIONS” (Oyster Point Pharma, Inc., priority 2018, published 2021).
“Also recorded” adds a separate entry of the source.

Columns and labels:
[1] = molecular target: T1, human alpha4beta2 nAChRs (Homo sapiens, UniProt P17787+P43681); assay: Positive allosteric modulation of agonist-evoked currents, two-electrode voltage clamp in Xenopus oocytes (Example 1); type: cell-based
T1 construct: expressed in transfected cells; host or cells: Xenopus laevis oocytes (cDNA injection)
Description: • Acetylcholine chloride • 100 mM stock solution in bi-distilled water 1.3 Test system • Apparatus: Automated Injection and Recording Apparatus, HiQScreen • Species of donor animals: Xenopus • Strain of animals: Laevis • Origin (supplier) of animals: HiQScreen Sàrl, Geneva • Body Weight of animals: 150 g to 300 g • Animal maintenance 3 to 5 per vivarium • Room temperature: 20-22° C. • Lighting times: Vivarium were exposed to daylight with additional artificial lighting (6 am-8 pm in summer; 8 am-7 pm in winter). • Food: Food pellets, ad libitum • Source of biological material • and isolation procedure: Abdominal incision to remove ovaries • Experimental conditions in Oocyte incubation: Barth solution containing in mM NaCl 88, • vitro: […] OR2 medium containing in mM: […] Two-electrode voltage clamp, using proprietary automated system equipped with a Geneclamp amplifier (Axon Instrument, Foster City, Calif., USA), or HiClamp (Multichannel Systems, Germany) Abbreviations: Ach, Acetylcholine; nAChR, Nicotinic acetylcholine receptor; SEM, Standard error of the mean; PAM, Positive allosteric modulator All experiments were carried out at human nAChRs expressed in Xenopus oocytes using the method of cDNA expression. Xenopus oocytes were prepared and injected using standard procedures. Briefly, ovaries were harvested from Xenopus Laevis females that have been deeply anesthetized by cooling at 4° C. and Tricaine methanesulfonate (MS-222 at a concentration of 150 mg/L) in sodium bicarbonate (300 mg/L). Once anesthetized the animal was decapitated and pithed following the rules of animal rights from the Geneva canton. […] All recordings were performed at 18° C. and cells superfused with OR2 medium containing in mM: […] Currents evoked by ACh or other agonists were recorded using an automated process equipped with standard two-electrode voltage-clamp configuration (TEVC). Data were captured and analyzed using a HiQScreen proprietary data acquisition and analysis software running under Matlab (Mathworks Inc.). […] Compounds were dissolved in OR2 as stock solution (1 mM) and the final dilution to the desired concentration was made on the day of the experiment. Injections of cDNAs encoding for the human alpha4beta2, were performed in at least 95 oocytes were performed using a proprietary automated injection device (Hogg et al., J. Neurosci. Methods, 2008) and receptor expression examined at least two days later. Oocytes were poked with two electrodes and their membrane potential maintained, unless indicated, at −80 mV throughout the experiment. A protocol to determine the allosteric modulation at the alpha4beta2 nAChRs in the oocytes expressing the receptor was developed. Oocytes expressing alpha4beta2 nAChRs were exposed to increasing concentrations of ACh while the response was evaluated. This was repeated with the addition of a fixed concentration of the allosteric modulator. The current evoked from the exposure to the agonist with the modulator was recorded and compared to currents evoked in the absence of the modulator. To assess the effects of positive allosteric modulators (Br-PBTC and NS-9283) a protocol of determination of the concentration activation curve in absence and presence of the PAM was designed. […] To assess the positive allosteric modulator effects of NS-9283 at the compound 1 hemi-galactarate dihydrate the same experimental protocol was conducted using 1 μM of the modulator. […] To further evaluate the PAM effects, the modulation was measured either as a first application and compared versus the subsequent agonist evoked response or, vice versa, by first exposing the cell to the agonist alone and then to the PAM and the agonist applied during a sustained PAM exposure. […] The same experiment was then conducted for compound 1 hemi-galactarate dihydrate as the agonist and Br-PBTC as the modulator or NS-9283 as the modulator.

[2] = molecular target: T1, human alpha4beta2 nAChRs; assay: Desensitization by sustained (1 hour) agonist exposure and recovery, without and with PAM, Xenopus oocytes (Example 1); type: cell-based
[3] = presence vs absence of 1 μM PAM

T1 sequence (P43681 29-627 limits assumed): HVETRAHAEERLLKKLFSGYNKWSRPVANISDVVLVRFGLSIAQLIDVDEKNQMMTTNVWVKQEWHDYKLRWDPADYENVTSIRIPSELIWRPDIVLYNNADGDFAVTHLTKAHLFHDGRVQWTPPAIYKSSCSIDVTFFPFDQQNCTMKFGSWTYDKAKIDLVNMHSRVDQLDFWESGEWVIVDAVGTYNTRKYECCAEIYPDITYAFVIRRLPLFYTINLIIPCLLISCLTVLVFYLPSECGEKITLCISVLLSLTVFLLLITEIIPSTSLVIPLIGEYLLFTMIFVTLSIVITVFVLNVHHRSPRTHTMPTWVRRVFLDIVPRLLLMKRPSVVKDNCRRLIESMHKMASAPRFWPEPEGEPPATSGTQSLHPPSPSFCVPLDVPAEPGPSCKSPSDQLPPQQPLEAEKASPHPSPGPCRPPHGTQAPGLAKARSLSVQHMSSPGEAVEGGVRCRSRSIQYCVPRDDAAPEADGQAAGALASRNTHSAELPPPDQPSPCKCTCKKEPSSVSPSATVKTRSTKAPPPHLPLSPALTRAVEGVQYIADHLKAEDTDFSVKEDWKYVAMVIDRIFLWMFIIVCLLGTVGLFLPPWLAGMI
T1 sequence (P17787 26-502): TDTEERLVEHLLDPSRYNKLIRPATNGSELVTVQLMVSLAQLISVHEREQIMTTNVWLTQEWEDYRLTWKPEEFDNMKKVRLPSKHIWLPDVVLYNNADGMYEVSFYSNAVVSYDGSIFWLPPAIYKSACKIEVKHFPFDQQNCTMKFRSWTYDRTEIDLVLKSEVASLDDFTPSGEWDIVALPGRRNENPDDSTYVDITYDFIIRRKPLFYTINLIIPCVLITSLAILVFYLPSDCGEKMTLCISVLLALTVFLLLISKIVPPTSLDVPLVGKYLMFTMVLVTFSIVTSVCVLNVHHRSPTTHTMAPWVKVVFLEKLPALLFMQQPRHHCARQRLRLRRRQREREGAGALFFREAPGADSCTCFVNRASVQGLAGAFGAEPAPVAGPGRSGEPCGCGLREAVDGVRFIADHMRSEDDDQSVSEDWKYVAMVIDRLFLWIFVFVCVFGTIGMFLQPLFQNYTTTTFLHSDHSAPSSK

For `N#Cc1cccc(-c2nc(-c3cccnc3)no2)c1` [NS-9283, 3-[3-(3-Pyridinyl)-1,2,4-oxadiazol-5-yl]benzonitrile], the “positive allosteric modulator activity in the presence of compound 1 hemi-galactarate dihydrate” value ([1]; 1 μM PAM) was “acts as a positive allosteric modulator; also recorded: potentiate the agonistic activity”, the “dependence of potentiation on the order of agonist and PAM application” value ([1]; agonist compound 1 hemi-galactarate dihydrate) was “independent on the exposure protocol” and the “maximal current evoked by compound 1 hemi-galactarate dihydrate” value [1, 3] was “no significant increase”. For the same compound, the “shift of the concentration activation curve to compound 1 hemi-galactarate dihydrate” value [1, 3] was “significant shift to the left”, the “effect of PAM on recovery from varenicline tartrate desensitization” value ([2]; 300 μM varenicline tartrate 1 hour, 1 μM PAM, wash of 3 hours) was “failed to significantly modify the recovery time course” and the “effect of PAM on amplitude of the current evoked by varenicline tartrate” value ([2]; 300 μM varenicline tartrate, 1 μM PAM) was “enhanced the response”. For the same compound, the “effect of PAM on profile of compound 1 hemi-galactarate dihydrate desensitization and recovery” value ([2]; 1 mM agonist, co-application of 1 μM modulator) was “minimal effect”.
